The values that follow come from US12691112B2, “FGFR tyrosine kinase inhibitors for the treatment of urothelial carcinoma” (Janssen Pharmaceutica NV, priority 2019, dated 2026).

For assay [1] the following is noted: 10 patients, nine with disease progression on prior immunotherapy; cited from earlier work.
In assay [2] the test system is urothelial cancer. As to the kind of experiment: Best response to prior chemotherapy before study enrolment, per investigator assessment. In kind it is in vivo, human. To be noted: first-line chemotherapy before study enrolment; across all regimens.
Description: Across all regimens, 184 patients had received first-line platinum-based chemotherapy, 83 had received second-line chemotherapy, and 24 had received third-line chemotherapy before study enrolment.

Take `COCc1c(-c2cc3cc(C)cc(OC)c3s2)c2c(N)ncnn2c1CN1CCNC(=O)C1` [rogaratinib]: in assay [1], the patients who responded was 30%.
Take gemcitabine plus cisplatin: the “best ORR per investigator assessment” value in assay [2] was determined as 35%.
